Experimental data: paper PMC5412686 (Biopharmaceutics & Drug Disposition, 2017)
Converted amounts (≈) assume the structure as drawn. Like-named read-outs stand apart in the source and are kept apart here.

How the values were obtained:
[1] = Rats, fraction unbound; ref Supplemental Table S1; cited from earlier work
[2] = Humans, fraction unbound in plasma; ref Supplemental Table S1; cited from earlier work
[3] = Humans, cited from earlier work; for CL: i.v.
[4] = Intrinsic metabolic clearance determined in human liver microsomes; type: in vitro ADME; settings: pH 7.4
[5] = rat, in vivo, cited from earlier work
[6] = Solubility in fasted state simulated intestinal fluid; type: physicochemical; settings: FaSSIF, 37 °C, pH 6.5, fassif, thermodynamic from solid
[7] = ref Supplemental Table S1, cited from earlier work; for HBD: number of hydrogen bond donors; for log D: octanol/water at pH 7.4; for PSA: polar surface area
Caco‐2 cells (TC7 clone) = settings: Equation 11 from measured P‐Caco2
[8] = human, Caco-2, pH 7.4, with cyclosporine A 10 μM

Row | SMILES | f up [1] | f up [2] | CL ([3]; ref Supplemental Table S2) | F ([3]; oral bioavailability, ref Supplemental Table S2) | Vss ([3]; ref Supplemental Table S2) | microsomal CLint at 1 μM [4] | CL ([5]; iv) | F ([5]; po) | solubility at 24 h [6] | HBD [7] | log D [7] | PSA [7] | Base pKa [7] | Urinary excretion (f e) ([3]; excreted unchanged in urine, ref Supplemental Table S1) | Calculated P eff from P‐Caco2 (Caco‐2 cells (TC7 clone)) | Papp at 2 h, 1 μM [8]
1 | CN(C)CCCN1c2ccccc2Sc2ccc(Cl)cc21 [Chlorpromazine] | 0.01 | 0.06 | 76.6 L/h | 0.31 | 8.88 L/kg | 47 µL/min/mg | 52 mL/min/kg | 0.02 | 814 µg/mL (≈ 2550 µM) | 0 | 2.82 | 1.8 | 9.7 |  |  | 
2 | CN1CCN(C2=Nc3cc(Cl)ccc3Nc3ccccc32)CC1 [Clozapine] | 0.1 | 0.06 | 13.02 L/h |  |  |  |  |  | 350 µg/mL (≈ 1070 µM) | 1 | 2.99 | 25.6 |  | < 1 % of dose | 3.7 10^−4 cm/s | 28.4 ×10⁻⁶ cm/s
